Among the data in US20250171438A1 (Agios Pharmaceuticals, Inc., priority 2022, published 2025) are AC50 values, retold here.

This test deals with T1, human PAH with the R408W mutation (Homo sapiens, UniProt P00439, R408W).
T1 construct: expressed in transfected cells
T1 sequence (P00439 1-452 R408W): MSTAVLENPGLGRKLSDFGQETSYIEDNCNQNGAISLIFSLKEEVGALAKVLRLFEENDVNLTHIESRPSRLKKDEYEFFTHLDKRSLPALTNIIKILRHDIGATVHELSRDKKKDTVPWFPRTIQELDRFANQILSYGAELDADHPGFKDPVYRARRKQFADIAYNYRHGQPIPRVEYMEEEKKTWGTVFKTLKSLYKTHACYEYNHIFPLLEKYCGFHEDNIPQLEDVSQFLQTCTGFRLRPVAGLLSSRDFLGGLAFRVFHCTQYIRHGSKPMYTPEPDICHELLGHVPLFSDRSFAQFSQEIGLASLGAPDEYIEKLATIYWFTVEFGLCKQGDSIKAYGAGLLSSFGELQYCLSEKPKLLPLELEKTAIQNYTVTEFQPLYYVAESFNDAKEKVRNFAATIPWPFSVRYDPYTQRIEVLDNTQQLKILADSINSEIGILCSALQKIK
The test can be described thus: Cell Based Phenylalanine Flux Assay. The note with it: A375 cells expressing human R408W PAH; 24 hrs compound incubation; 13C-Tyrosine by LC-MS; average where tested multiple times; read-out: AC50.

As for `Cc1cc(-c2nnc(C(=O)N3CCc4[nH]cnc4[C@@H]3c3nc4ccccc4s3)o2)nn1C` [Example 1943, (R)-(4-(benzo[d]thiazol-2-yl)-6,7-dihydro-1H-imidazo[4,5-c]pyridin-5(4H)-yl)(5-(1,5-dimethyl-1H-pyrazol-3-yl)-1,3,4-oxadiazol-2-yl)methanone], the AC50 was 1000 to 5000 nM. Next, `Cc1cc(-c2nnc(C(=O)N3CCc4[nH]cnc4[C@H]3c3nc4ccccc4s3)o2)nn1C` [Example 1944]: 500 to 1000 nM. Turning to `Cn1nccc1-c1nnc(C(=O)N2CCc3[nH]cnc3[C@H]2c2nc3ccccc3s2)o1` [Example 1945], the half-maximal activity concentration (AC50) is below 500 nM. Next, `Cn1nccc1-c1nnc(C(=O)N2CCc3[nH]cnc3[C@@H]2c2nc3ccccc3s2)o1` [Example 1946, (R)-(4-(benzo[d]thiazol-2-yl)-6,7-dihydro-1H-imidazo[4,5-c]pyridin-5(4H)-yl)(5-(1-methyl-1H-pyrazol-5-yl)-1,3,4-oxadiazol-2-yl)methanone]: 1000 to 5000 nM; `Cc1cnn(C)c1-c1nnc(C(=O)N2CCc3[nH]cnc3[C@H]2c2nc3ccccc3s2)o1` [Example 1947]: below 500 nM. As for `Cc1cnn(C)c1-c1nnc(C(=O)N2CCc3[nH]cnc3[C@@H]2c2nc3ccccc3s2)o1` [Example 1948, (R)-(4-(benzo[d]thiazol-2-yl)-6,7-dihydro-1H-imidazo[4,5-c]pyridin-5(4H)-yl)(5-(1,4-dimethyl-1H-pyrazol-5-yl)-1,3,4-oxadiazol-2-yl)methanone], the AC50 is 1000 to 5000 nM.

Consider `Cc1nc(C2(O)CC2)oc1C(=O)N1CCc2[nH]cnc2[C@H]1c1nc2c(F)cccc2s1` [Example 1949, (S)-(4-(4-fluorobenzo[d]thiazol-2-yl)-6,7-dihydro-1H-imidazo[4,5-c]pyridin-5(4H)-yl)(2-(1-hydroxycyclopropyl)-4-methyloxazol-5-yl)methanone], for which the concentration at half-maximal activity (AC50) lay in the range of 500 to 1000 nM. Next, `Cc1nc(C2(O)CC2)oc1C(=O)N1CCc2[nH]cnc2[C@@H]1c1nc2c(F)cccc2s1` [Example 1950, (R)-(4-(4-fluorobenzo[d]thiazol-2-yl)-6,7-dihydro-1H-imidazo[4,5-c]pyridin-5(4H)-yl)(2-(1-hydroxycyclopropyl)-4-methyloxazol-5-yl)methanone]: above 5000 nM.

Take `CC(C)n1ncc(C(=O)N2CCc3[nH]cnc3[C@H]2c2nc3c(F)cccc3s2)c1Cl` [Example 1951]: the AC50 lay in the range of 500 to 1000 nM. On to `CC(C)n1ncc(C(=O)N2CCc3[nH]cnc3[C@@H]2c2nc3c(F)cccc3s2)c1Cl` [Example 1952, (R)-(5-chloro-1-isopropyl-1H-pyrazol-4-yl)(4-(4-fluorobenzo[d]thiazol-2-yl)-6,7-dihydro-1H-imidazo[4,5-c]pyridin-5(4H)-yl)methanone], for which the AC50 is 1000 to 5000 nM.

In the case of `CC(C)n1ncc(C(=O)N2CCc3[nH]cnc3[C@H]2c2nc3c(F)cccc3s2)c1Br` [Example 1953], the AC50 fell in the range of 500 to 1000 nM. As for `CC(C)n1ncc(C(=O)N2CCc3[nH]cnc3[C@@H]2c2nc3c(F)cccc3s2)c1Br` [Example 1954, (R)-(5-bromo-1-isopropyl-1H-pyrazol-4-yl)(4-(4-fluorobenzo[d]thiazol-2-yl)-6,7-dihydro-1H-imidazo[4,5-c]pyridin-5(4H)-yl)methanone], the figure is 1000 to 5000 nM; as for `Cn1nc(Cl)nc1C(=O)N1CCc2[nH]cnc2[C@H]1c1nc2c(F)cccc2s1` [Example 1955], below 500 nM. Next, `Cn1nc(Cl)nc1C(=O)N1CCc2[nH]cnc2[C@@H]1c1nc2c(F)cccc2s1` [Example 1956, (R)-(3-chloro-1-methyl-1H-1,2,4-triazol-5-yl)(4-(4-fluorobenzo[d]thiazol-2-yl)-6,7-dihydro-1H-imidazo[4,5-c]pyridin-5(4H)-yl)methanone]: 1000 to 5000 nM. `CCn1ncnc1C(=O)N1CCc2[nH]cnc2[C@@H]1c1nc2ccccc2s1` [Example 1957, (R)-(4-(benzo[d]thiazol-2-yl)-6,7-dihydro-1H-imidazo[4,5-c]pyridin-5(4H)-yl)(1-ethyl-1H-1,2,4-triazol-5-yl)methanone]: the AC50 is below 500 nM.

Take `CCn1ncnc1C(=O)N1CCc2[nH]cnc2[C@H]1c1nc2ccccc2s1` [Example 1958]: the half-maximal activity concentration (AC50) is below 500 nM. Take `CCn1ncnc1C(=O)N1CCc2[nH]cnc2[C@H]1c1nc2c(F)cccc2s1` [Example 1959]: the AC50 was below 500 nM. Turning to `CCn1ncnc1C(=O)N1CCc2[nH]cnc2[C@@H]1c1nc2c(F)cccc2s1` [Example 1960, (R)-(1-ethyl-1H-1,2,4-triazol-5-yl)(4-(4-fluorobenzo[d]thiazol-2-yl)-6,7-dihydro-1H-imidazo[4,5-c]pyridin-5(4H)-yl)methanone], the half-maximal activity concentration (AC50) fell in the range of 1000 to 5000 nM. For the molecule `C[C@H](O)c1nc(C(F)F)c(C(=O)N2CCc3[nH]cnc3[C@H]2c2nc3c(F)cccc3s2)o1` [Example 1961, (4-(difluoromethyl)-2-((S)-1-hydroxyethyl)oxazol-5-yl) ((S)-4-(4-fluorobenzo[d]thiazol-2-yl)-6,7-dihydro-1H-imidazo[4,5-c]pyridin-5(4H)-yl)methanone], the AC50 was below 500 nM. Next, `C[C@H](O)c1nc(C(F)F)c(C(=O)N2CCc3[nH]cnc3[C@@H]2c2nc3c(F)cccc3s2)o1` [Example 1962, (4-(difluoromethyl)-2-((S)-1-hydroxyethyl)oxazol-5-yl)((R)-4-(4-fluorobenzo[d]thiazol-2-yl)-6,7-dihydro-1H-imidazo[4,5-c]pyridin-5(4H)-yl)methanone]: 1000 to 5000 nM; `CC(C)(O)c1nc(Cl)c(C(=O)N2CCc3[nH]cnc3[C@H]2c2nc3ccccc3s2)o1` [Example 1963]: below 500 nM; `CC(C)(O)c1nc(Cl)c(C(=O)N2CCc3[nH]cnc3[C@@H]2c2nc3ccccc3s2)o1` [Example 1964, (R)-(4-(benzo[d]thiazol-2-yl)-6,7-dihydro-1H-imidazo[4,5-c]pyridin-5(4H)-yl)(4-chloro-2-(2-hydroxypropan-2-yl)oxazol-5-yl)methanone]: 1000 to 5000 nM. Next, `O=C(c1nnc(-c2c[nH]nc2C(F)(F)F)o1)N1CCc2[nH]cnc2[C@H]1c1nc2ccccc2s1` [Example 1965]: 500 to 1000 nM. Next, `O=C(c1nnc(-c2c[nH]nc2C(F)(F)F)o1)N1CCc2[nH]cnc2[C@@H]1c1nc2ccccc2s1` [Example 1966, (R)-(4-(benzo[d]thiazol-2-yl)-6,7-dihydro-1H-imidazo[4,5-c]pyridin-5(4H)-yl)(5-(3-(trifluoromethyl)-1H-pyrazol-4-yl)-1,3,4-oxadiazol-2-yl)methanone]: 1000 to 5000 nM; `O=C(c1cnn(CC(F)(F)F)c1Cl)N1CCc2[nH]cnc2[C@H]1c1nc2c(F)cccc2s1` [Example 1967, (S)-(5-chloro-1-(2,2,2-trifluoroethyl)-1H-pyrazol-4-yl)(4-(4-fluorobenzo[d]thiazol-2-yl)-6,7-dihydro-1H-imidazo[4,5-c]pyridin-5(4H)-yl)methanone]: below 500 nM.

Consider `O=C(c1cnn(CC(F)(F)F)c1Cl)N1CCc2[nH]cnc2[C@@H]1c1nc2c(F)cccc2s1` [Example 1968, (R)-(5-chloro-1-(2,2,2-trifluoroethyl)-1H-pyrazol-4-yl)(4-(4-fluorobenzo[d]thiazol-2-yl)-6,7-dihydro-1H-imidazo[4,5-c]pyridin-5(4H)-yl)methanone], for which the AC50 fell in the range of 1000 to 5000 nM. As for `O=C(c1cnn(C2CC2)c1Cl)N1CCc2[nH]cnc2[C@H]1c1nc2c(F)cccc2s1` [Example 1969], the figure is 500 to 1000 nM; as for `O=C(c1cnn(C2CC2)c1Cl)N1CCc2[nH]cnc2[C@@H]1c1nc2c(F)cccc2s1` [Example 1970, (R)-(5-chloro-1-cyclopropyl-1H-pyrazol-4-yl)(4-(4-fluorobenzo[d]thiazol-2-yl)-6,7-dihydro-1H-imidazo[4,5-c]pyridin-5(4H)-yl)methanone], 1000 to 5000 nM; as for `O=C(c1cnn(CC2CC2)c1Cl)N1CCc2[nH]cnc2[C@H]1c1nc2c(F)cccc2s1` [Example 1971, (S)-(5-chloro-1-(cyclopropylmethyl)-1H-pyrazol-4-yl)(4-(4-fluorobenzo[d]thiazol-2-yl)-6,7-dihydro-1H-imidazo[4,5-c]pyridin-5(4H)-yl)methanone], 500 to 1000 nM. Consider `O=C(c1cnn(CC2CC2)c1Cl)N1CCc2[nH]cnc2[C@@H]1c1nc2c(F)cccc2s1` [Example 1972, (R)-(5-chloro-1-(cyclopropylmethyl)-1H-pyrazol-4-yl)(4-(4-fluorobenzo[d]thiazol-2-yl)-6,7-dihydro-1H-imidazo[4,5-c]pyridin-5(4H)-yl)methanone], for which the concentration at half-maximal activity (AC50) is 1000 to 5000 nM. As for `O=C(c1cnn(CC(F)(F)F)c1C(F)F)N1CCc2[nH]cnc2[C@H]1c1nc2ccccc2s1` [Example 1973], the half-maximal activity concentration (AC50) is below 500 nM. Next, `O=C(c1cnn(CC(F)(F)F)c1C(F)F)N1CCc2[nH]cnc2[C@@H]1c1nc2ccccc2s1` [Example 1974, (R)-(4-(benzo[d]thiazol-2-yl)-6,7-dihydro-1H-imidazo[4,5-c]pyridin-5(4H)-yl)(5-(difluoromethyl)-1-(2,2,2-trifluoroethyl)-1H-pyrazol-4-yl)methanone]: 1000 to 5000 nM; `O=C(c1cnn(CC(F)(F)F)c1C(F)F)N1CCc2[nH]cnc2[C@H]1c1nc2c(F)cccc2s1` [Example 1975]: 1000 to 5000 nM; `O=C(c1cnn(CC(F)(F)F)c1C(F)F)N1CCc2[nH]cnc2[C@@H]1c1nc2c(F)cccc2s1` [Example 1976, (R)-(5-(difluoromethyl)-1-(2,2,2-trifluoroethyl)-1H-pyrazol-4-yl)(4-(4-fluorobenzo[d]thiazol-2-yl)-6,7-dihydro-1H-imidazo[4,5-c]pyridin-5(4H)-yl)methanone]: 500 to 1000 nM.

A word on the AC50: it is the concentration at which the activity in the assay is half-maximal.
